Assay results reported in patent publication US11970448B2, “Monomers capable of dimerizing in an aqueous solution, and methods of using same” (CORNELL UNIVERSITY, priority 2011, dated 2024).
Like-named read-outs stand apart in the source and are kept apart here.

Target: T1, recominbant human tryptase, beta, from lung (Homo sapiens, UniProt P20231)
T1 construct: purchased Promega or Enzo Life Sciences G5631 or BML-SE418
Assay: Inhibition of tryptase activity by monomers and multimers (Boc-Gln-Ala-Arg-AMC fluorescence)
Format: biochemical
Details: monomers against tryptase
Description: Stock solutions of recominbant human tryptase, beta, from lung (Promega: catalog number G5631, or Enzo Life Sciences: catalog number BML-SE418) were made at 30 μM, in solution with 5 μM heparin sulfate and 1 M NaCl. Monomer tryptase inhibitor stock solutions were made at 50 mM in DMSO. Test substance plates were made at 1.2× the final concentration in assay buffer (50 mM HEPES, 150 mM NaCl, 100 μM EDTA, pH 7.4, 0.02% Tween-20). A final concentration of 1 nM tryptase was used. When required, test substances were diluted in water immediately before use in 10-fold serial dilutions. After the indicated incubation time, the test subtance-tryptase solution at 1.2× concentration, was diluted into assay buffer containing a final concentration of 200 μM N-tert-butoxycarbonyl-Gln-Ala-Arg-AMC HBr [AMC=7-amino-4-methylcoumarin] (Boc-Gln-Ala-Arg-AMC; Enzo Life Sciences: catalog number BML-P237) to a final volume of 50 μl in black opaque round bottom 96 well plates (Corning, catalog number 3792). The release of fluorescent AMC was immediately measured every 30 seconds over 15-30 minutes at an excitation wavelength of 367 nm, monitoring emission at 468 nm on a Spectramax M5 (Molecular Devices) microplate reader. The Softmax Pro (Molecular Devices) and Graphpad prism software were used to determine Vmax, and concentration-response curve IC50s, respectively.

[1] = Table 5, read-out: Monomer IC50 range
[2] = read-out: IC50 range group of additional monomers (boronic acid, benzooxaborole, ligands)

T1 sequence (P20231 31-275): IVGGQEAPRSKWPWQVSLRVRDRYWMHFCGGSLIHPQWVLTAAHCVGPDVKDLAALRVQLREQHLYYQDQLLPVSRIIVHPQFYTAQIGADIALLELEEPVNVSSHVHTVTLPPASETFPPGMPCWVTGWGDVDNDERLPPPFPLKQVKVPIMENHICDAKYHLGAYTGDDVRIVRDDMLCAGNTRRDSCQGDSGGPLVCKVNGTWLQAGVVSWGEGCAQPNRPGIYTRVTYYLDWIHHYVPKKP

| SMILES | IC50 [1] [µM] | IC50 [2] [µM] |
| --- | --- | --- |
| NCc1cccc(C2CCN(C(=O)c3ccc(-c4ccc5c(c4)COB5O)cc3)CC2)c1 [T36, (4-(3-(aminomethyl)phenyl)piperidin-1-yl)(4-(1-hydroxy-1,3-dihydrobenzo[c][1,2]oxaborol-5-yl)phenyl)methanone] | 1 to 10 | 1 to 10 |
| NCc1cccc(C2CCN(C(=O)c3cccc(-c4ccc5c(c4)COB5O)c3)CC2)c1 [T36M, (4-(3-(aminomethyl)phenyl)piperidin-1-yl)(3-(1-hydroxy-1,3-dihydrobenzo[c][1,2]oxaborol-5-yl)phenyl)methanone] | 0.0001 to 1 | 0.0001 to 1 |
| NCc1cccc(C2CCN(C(=O)c3cccc4sc(B(O)O)cc34)CC2)c1 [T37, 4-(4-(3-(aminomethyl)phenyl)piperidine-1-carbonyl)benzo[b]thiophen-2-ylboronic acid] | 1 to 10 | 1 to 10 |
| NCc1cccc(C2CCN(C(=O)c3cccc4sc(Br)cc34)CC2)c1 [T37A, (4-(3-(aminomethyl)phenyl)piperidin-1-yl)(2-bromobenzo[b]thiophen-4-yl)methanone] | 1 to 10 | – |
| NCc1cccc(C2CCN(C(=O)/C=C/c3ccc(O)c(CO)c3)CC2)c1 [T40, (E)-1-(4-(3-(aminomethyl)phenyl)piperidin-1-yl)-3-(4-hydroxy-3-(hydroxymethyl)phenyl)prop-2-en-1-one] | 1 to 10 | 1 to 10 |
| NCc1cccc(C2CCN(C(=O)/C=C/c3ccc(CO)c(O)c3)CC2)c1 [T41, (E)-1-(4-(3-(aminomethyl)phenyl)piperidin-1-yl)-3-(3-hydroxy-4-(hydroxymethyl)phenyl)prop-2-en-1-one] | 0.0001 to 1 | 0.0001 to 1 |
| NCc1cccc(C2CCN(C(=O)/C=C/c3ccc(C4CC4)c(O)c3)CC2)c1 [T41CYCLO, (E)-1-(4-(3-(aminomethyl)phenyl)piperidin-1-yl)-3-(4-cyclopropyl-3-hydroxyphenyl)prop-2-en-1-one] | 0.0001 to 1 | – |
| CC(C)(O)c1ccc(/C=C/C(=O)N2CCC(c3cccc(CN)c3)CC2)cc1O [T41GEM, (E)-1-(4-(3-(aminomethyl)phenyl)piperidin-1-yl)-3-(3-hydroxy-4-(2-hydroxypropan-2-yl)phenyl)prop-2-en-1-one] | 0.0001 to 1 | 0.0001 to 1 |
| NCc1cccc(C2CCN(C(=O)/C=C/c3cccc(O)c3CO)CC2)c1 [T42] | 1 to 10 | 1 to 10 |
| NCc1cccc(C2CCN(C(=O)/C=C/c3cc(O)c(O)c(O)c3)CC2)c1 [T43, (E)-1-(4-(3-(aminomethyl)phenyl)piperidin-1-yl)-3-(3,4,5-trihydroxyphenyl)prop-2-en-1-one] | 0.0001 to 1 | 0.0001 to 1 |
| NCc1cccc(C2CCN(C(=O)c3cccc4cc(CO)c(O)cc34)CC2)c1 [T44, (4-(3-(aminomethyl)phenyl)piperidin-1-yl)(7-hydroxy-6-(hydroxymethyl)naphthalen-1-yl)methanone] | 1 to 10 | 1 to 10 |
| NCc1cccc(C2CCN(C(=O)c3ccc(B(O)O)c4cccnc34)CC2)c1 [T51] | – | 10 to 65 |
| NCc1cccc(C2CCN(C(=O)c3cccc(OCCC(=O)N4C[C@@H](O)[C@@H](O)C4)c3)CC2)c1 [T53, 3-(3-(4-(3-(aminomethyl)phenyl)piperidine-1-carbonyl)phenoxy)-1-((3S,4R)-3,4-dihydroxypyrrolidin-1-yl)propan-1-one] | 0.0001 to 1 | 0.0001 to 1 |
| NCc1cccc(C2CCN(C(=O)c3cccc(O)c3)CC2)c1 [T53B, (4-(3-(aminomethyl)phenyl)piperidin-1-yl)(3-hydroxyphenyl)methanone] | 1 to 10 | – |
| NCc1cccc(C2CCN(C(=O)Cc3ccc(O)c(F)c3)CC2)c1 [T54A, 1-(4-(3-(aminomethyl)phenyl)piperidin-1-yl)-2-(3-fluoro-4-hydroxyphenyl)ethanone] | 1 to 10 | – |
| NCc1ccc2c(c1)C1(CCN(C(=O)Cc3ccc(B(O)O)c(F)c3)CC1)CO2 [T54BASPIRO] | – | 1 to 10 |
| NCc1cccc(C2CCN(C(=O)Cc3ccc(B(O)O)c(F)c3)CC2)c1 [T54BA] | – | 1 to 10 |
